Assay: Decomposition rate constant (kobs) of formoterol in aqueous solution
Type: physicochemical
Settings: for rate constant (kobs) for decomposition: aqueous solution, 60° C., ionic strength 0.05
Excerpt: In the embodiments herein, the compositions have a pH of about 2.0 to about 8.0, or 2.0 to 8.0. In other embodiments, the compositions have a pH of about 4.0 to about 6.0, or 4.0 to 6.0. In other embodiments, the pH is about 4.5 to about 5.5, or 4.5 to 5.5. In certain of the above embodiments, the compositions are formulated at a pH of about 4, 4.4 or 4.6 up to about 5.5, 5.7 or 6; or 4, 4.4 or 4.6 up to 5.5, 5.7 or 6. In other embodiments, the pH is about 5.0, or 5.0. […] The rate constant (kobs) at 60° C. at a pH of 3, 4, 5 and 7 is approximately 0.62, 0.11, 0.044 and 0.55 day^-1, respectively.
In other of the above embodiments, the compositions further contain a buffer, including, but not limited to, citric acid/phosphate, acetate, barbital, borate, Britton-Robinson, cacodylate, citrate, collidine, formate, maleate, McIlvaine, phFosphate, Prideaux-Ward, succinate, citrate-phosphate-borate (Teorell-Stanhagen), veronal acetate, MES (2-(N-morpholino)ethanesulfonic acid), BIS-TRIS (bis(2-hydroxyethyl)imino-tris-(hydroxymethyl)methane), ADA (N-(2-acetamido)-2-iminodiacetic acid), ACES (N-(carbamoylmethyl)-2-aminoethanesulfonic acid), PIPES (piperazine-N,N′-bis(2-ethanesulfonic acid)), MOPSO (3-(N-morpholino)-2-hydroxypropanesulfonic acid), BISTRIS PROPANE (1,3-bis(tris(hydroxymethyl)methylamino)propane), BES (N,N-bis(2-hydroxyethyl)-2-aminoethanesulfonic acid), MOPS (3-(N-morpholino)propanesulfonic acid), TES (N-tris(hydroxymethyl)methyl-2-aminoethanesulfonic acid), HEPES (N-(2-hydroxyethyl)-piperazine-N′-(2-eth-anesulfonic acid), DIPSO (3-(N,N-bis(2-hydroxyethyl)amino)-2-hydroxypropan-esulfonic acid), MOBS (4-(N-morpholino)-butanesulfonic acid), TAPSO (3-(N-tris(hydroxymethyl)methylamino)-2-hydroxypropanesulfonic acid), TRIZMA® (tris(hydroxymethylaminomethane), HEPPSO(N-(2-hydroxyethyl)piperazine-N′-(2-hydroxypropanesulfonic acid), POPSO (piperazine-N,N′-bis(2-hydroxypropanesulfonic acid)), TEA (triethanolamine), EPPS (N-(2-hydroxyethyl)piperazine-N′-(3-propanesulfon-ic acid), TRICINE (N-tris(hydroxy-methyl)methylglycine), GLY-GLY (glycylglycine), BICINE (N,N-bis(2-hydroxyethyl)glycine), HEPBS (N-(2-hydroxyethyl)piperazine-N′-(4-butanesulfonic acid)), TAPS(N-tris(hydroxymethyl)methyl-3-aminopropanesulfonic acid), AMPD (2-amino-2-methyl-1,3-propanediol), and/or any other buffers known to those of skill in the art. In one embodiment, the buffer is citric acid/phosphate buffer, acetate buffer, citrate buffer or phosphate buffer. In another embodiment, the buffer is a citrate buffer (citric acid/sodium citrate). […] Buffer concentrations for use include from about 0 or 0.01 mM to about 150 mM, or 0 or 0.01 mM to 150 mM. In another embodiment, the buffer concentration is about 1 mM to about 20 mM, or 1 mM to 20 mM. In one embodiment, the buffer concentration is about 5 mM, or 5 mM. In other embodiments, the buffer concentration is about 1 mM to about 50 mM, or 1 mM to 50 mM. […] The particular buffer and buffer concentration of a given composition for long term storage provided herein may be determined empirically using standard stability assays well known to those of skill in the art (see, e.g., the Examples).
Ionic strengths of the compositions provided herein are from about 0 to about 0.4, or 0 to 0.4. […] The particular ionic strength of a given composition for long term storage provided herein may be determined empirically using standard stability assays well known to those of skill in the art (see, e.g., the Examples). […]

SMILES: COc1ccc(CC(C)NCC(O)c2ccc(O)c(NC=O)c2)cc1 (racemic) [formoterol, 2-hydroxy-5-((1RS)-1-hydroxy-2-(((1RS)-2-(p-methoxyphenyl)-1-methylethyl)amino)ethyl)formanilide]
- rate constant (kobs) for decomposition (pH 3, buffer concentration 5 mM): approximately 0.62 day^-1
- rate constant (kobs) for decomposition (pH 4, buffer concentration 5 mM): ~0.11 day⁻¹
- rate constant (kobs) for decomposition (pH 5, buffer concentration 5 mM): ~0.044 day⁻¹
- rate constant (kobs) for decomposition (pH 7, buffer concentration 5 mM): ~0.55 day⁻¹
- effect of buffer concentration on rate constant of decomposition (pH region of about 4.5 to about 5.5, buffer concentration from 5 mM to 20 mM): no noticeable differences in rate constant

Reference: patent US9730890B2, “Bronchodilating beta-agonist compositions and methods” (Mylan Specialty L.P., priority 2003, dated 2017)
